Measurements as given in US8716297B2, “Chemical entities to be used for Wee1 inhibition for the treatment of cancer” (AbbVie Inc., priority 2011, dated 2014).

Target: T1, GST-tagged-Wee1 kinase (Homo sapiens, UniProt P30291)
T1 construct: purchased Carnabio 05-177
Test: Wee1 time-resolved fluorescence equilibrium binding assay (displacement of Oregon Green-labeled ATP-competitive probe)
Conditions: TR-FRET probe displacement; 2 nM GST-Wee1, 300 nM probe, 1 hour incubation; read-out: Wee-1 binding (Ki nM)
Protocol: Wee1 kinase was assayed using a time-resolved fluorescence equilibrium binding assay monitoring displacement of a rapidly reversible Oregon Green-labeled ATP-competitive kinase probe (N-(2-(2-(2-(4-(4-(5-chloro-4-(2-(1-hydroxycyclobutyl)thiazol-5-yl)-1H-pyrrolo[2,3-b]pyridin-2-yl)phenyl)piperazin-1-yl)ethoxy)ethoxy)ethyl)-2′,7′-difluoro-3′,6′-dihydroxy-3-oxo-3H-spiro[isobenzofuran-1,9′-xanthene]-5-carboxamide) by competitive Wee1 inhibitors.

T1 sequence (P30291 whole entry): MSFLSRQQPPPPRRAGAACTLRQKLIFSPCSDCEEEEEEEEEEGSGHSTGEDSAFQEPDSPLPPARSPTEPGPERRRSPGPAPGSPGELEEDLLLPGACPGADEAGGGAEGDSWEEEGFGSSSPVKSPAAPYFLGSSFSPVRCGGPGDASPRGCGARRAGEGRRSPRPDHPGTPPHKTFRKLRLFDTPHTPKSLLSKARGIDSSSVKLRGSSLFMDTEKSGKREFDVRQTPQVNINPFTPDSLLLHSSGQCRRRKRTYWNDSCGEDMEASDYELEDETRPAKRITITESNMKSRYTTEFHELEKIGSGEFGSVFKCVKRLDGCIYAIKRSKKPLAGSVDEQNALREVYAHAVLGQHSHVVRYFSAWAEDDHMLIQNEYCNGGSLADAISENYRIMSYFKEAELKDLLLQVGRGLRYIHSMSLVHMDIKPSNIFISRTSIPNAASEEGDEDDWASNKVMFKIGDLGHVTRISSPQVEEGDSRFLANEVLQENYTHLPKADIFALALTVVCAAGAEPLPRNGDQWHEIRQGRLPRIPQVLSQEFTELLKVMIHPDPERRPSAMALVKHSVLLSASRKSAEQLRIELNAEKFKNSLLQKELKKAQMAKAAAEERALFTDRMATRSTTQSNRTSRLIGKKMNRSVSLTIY

Row | Compound | Ki [nM]
1 | C=CCN1c2ccccc2-c2nc(Nc3ccc(N4CCN(C)CC4)cc3)ncc2S1(=O)=O [Example 1, 6-allyl-N-[4-(4-methylpiperazin-1-yl)phenyl]-6H-pyrimido[5,4-c][2,1]benzothiazin-2-amine 5,5-dioxide] | 1.8
2 | C/C=C/N1c2ccccc2-c2nc(Nc3ccc(N4CCN(C)CC4)cc3)ncc2S1(=O)=O [Example 2, N-[4-(4-methylpiperazin-1-yl)phenyl]-6-[(1E)-prop-1-en-1-yl]-6H-pyrimido[5,4-c][2,1]benzothiazin-2-amine 5,5-dioxide] | 1.7
3 | C=CCN1c2ccccc2-c2nc(Nc3ccc(OCCN(CC)CC)cc3)ncc2S1(=O)=O [Example 3, 6-allyl-N-{4-[2-(diethylamino)ethoxy]phenyl}-6H-pyrimido[5,4-c][2,1]benzothiazin-2-amine 5,5-dioxide] | 4.8
4 | C=CCN1c2ccccc2-c2nc(Nc3ccc4c(c3)N(C(C)=O)CC4)ncc2S1(=O)=O [Example 5, 1-{6-[(6-allyl-5,5-dioxido-6H-pyrimido[5,4-c][2,1]benzothiazin-2-yl)amino]-2,3-dihydro-1H-indol-1-yl}ethanone] | 9
5 | C=CCN1c2ccccc2-c2nc(Nc3ccc4c(c3)NC(=O)CO4)ncc2S1(=O)=O [Example 6, 6-[(6-allyl-5,5-dioxido-6H-pyrimido[5,4-c][2,1]benzothiazin-2-yl)amino]-2H-1,4-benzoxazin-3(4H)-one] | 47
6 | C=CCN1c2ccccc2-c2nc(Nc3ccc(-c4ccncc4)cc3)ncc2S1(=O)=O [Example 7, 6-allyl-N-[4-(pyridin-4-yl)phenyl]-6H-pyrimido[5,4-c][2,1]benzothiazin-2-amine 5,5-dioxide] | 1230
7 | C=CCN1c2ccccc2-c2nc(Nc3ccc4c(c3)N(C)CCC4)ncc2S1(=O)=O [Example 8, 6-allyl-N-(1-methyl-1,2,3,4-tetrahydroquinolin-7-yl)-6H-pyrimido[5,4-c][2,1]benzothiazin-2-amine 5,5-dioxide] | 106
8 | C=CCN1c2ccccc2-c2nc(Nc3ccc(N4CCC(C)CC4)cc3)ncc2S1(=O)=O [Example 9, 6-allyl-N-[4-(4-methylpiperidin-1-yl)phenyl]-6H-pyrimido[5,4-c][2,1]benzothiazin-2-amine 5,5-dioxide] | 50
9 | C=CCN1c2ccccc2-c2nc(Nc3ccc(N4CCN(C(C)=O)CC4)cc3)ncc2S1(=O)=O [Example 10, 1-(4-{4-[(6-allyl-5,5-dioxido-6H-pyrimido[5,4-c][2,1]benzothiazin-2-yl)amino]phenyl}piperazin-1-yl)ethanone] | 5
10 | C=CCN1c2ccccc2-c2nc(Nc3ccc(N4CCCCC4)cc3)ncc2S1(=O)=O [Example 11, 6-allyl-N-[4-(piperidin-1-yl)phenyl]-6H-pyrimido[5,4-c][2,1]benzothiazin-2-amine 5,5-dioxide] | 31
11 | C=CCN1c2ccccc2-c2nc(Nc3ccccc3N3CCN(C)CC3)ncc2S1(=O)=O [Example 12, 6-allyl-N-[2-(4-methylpiperazin-1-yl)phenyl]-6H-pyrimido[5,4-c][2,1]benzothiazin-2-amine 5,5-dioxide] | 738
12 | C=CCN1c2ccccc2-c2nc(Nc3ccc(C4CCCCC4)cc3)ncc2S1(=O)=O [Example 13, 6-allyl-N-(4-cyclohexylphenyl)-6H-pyrimido[5,4-c][2,1]benzothiazin-2-amine 5,5-dioxide] | 2080
13 | C=CCN1c2ccccc2-c2nc(Nc3ccc(-c4nc5cnccc5[nH]4)cc3)ncc2S1(=O)=O [Example 14, 6-allyl-N-[4-(1H-imidazo[4,5-c]pyridin-2-yl)phenyl]-6H-pyrimido[5,4-c][2,1]benzothiazin-2-amine 5,5-dioxide] | 1440
14 | C=CCN1c2ccccc2-c2nc(Nc3ccc(N4CCN(C)CC4)cc3OC)ncc2S1(=O)=O [Example 15, 6-allyl-N-[2-methoxy-4-(4-methylpiperazin-1-yl)phenyl]-6H-pyrimido[5,4-c][2,1]benzothiazin-2-amine 5,5-dioxide] | 166
15 | C=CCN1c2ccccc2-c2nc(Nc3ccc(N4CCOCC4)cc3)ncc2S1(=O)=O [Example 16, 6-allyl-N-[4-(morpholin-4-yl)phenyl]-6H-pyrimido[5,4-c][2,1]benzothiazin-2-amine 5,5-dioxide] | 7
16 | C=CCN1c2ccccc2-c2nc(Nc3ccc4c(c3)CCCC4)ncc2S1(=O)=O [Example 17, 6-allyl-N-(5,6,7,8-tetrahydronaphthalen-2-yl)-6H-pyrimido[5,4-c][2,1]benzothiazin-2-amine 5,5-dioxide] | 2040
17 | C=CCN1c2ccccc2-c2nc(Nc3cccc(N4CCN(C)CC4)c3)ncc2S1(=O)=O [Example 18, 6-allyl-N-[3-(4-methylpiperazin-1-yl)phenyl]-6H-pyrimido[5,4-c][2,1]benzothiazin-2-amine 5,5-dioxide] | 4
18 | C=CCN1c2ccccc2-c2nc(Nc3ccc(C4CCN(C)CC4)cc3)ncc2S1(=O)=O [Example 19, 6-allyl-N-[4-(1-methylpiperidin-4-yl)phenyl]-6H-pyrimido[5,4-c][2,1]benzothiazin-2-amine 5,5-dioxide] | 1.2

Row | Compound | Ki [nM]
19 | C=CCN1c2ccccc2-c2nc(Nc3ccc(-c4nc5ccccc5[nH]4)cc3)ncc2S1(=O)=O [Example 20, 6-allyl-N-[4-(1H-benzimidazol-2-yl)phenyl]-6H-pyrimido[5,4-c][2,1]benzothiazin-2-amine 5,5-dioxide] | 283
20 | C=CCN1c2ccccc2-c2nc(Nc3ccc4c(c3)CN(C)CC4(C)C)ncc2S1(=O)=O [Example 22, 6-allyl-N-(2,4,4-trimethyl-1,2,3,4-tetrahydroisoquinolin-7-yl)-6H-pyrimido[5,4-c][2,1]benzothiazin-2-amine 5,5-dioxide] | 1.7
21 | C=CCN1c2ccccc2-c2nc(Nc3ccccc3)ncc2S1(=O)=O [Example 24, 6-allyl-N-phenyl-6H-pyrimido[5,4-c][2,1]benzothiazin-2-amine 5,5-dioxide] | 220
22 | C=CCN1c2ccccc2-c2nc(Nc3ccc(N4CCNCC4)cc3)ncc2S1(=O)=O [Example 25, 6-allyl-N-[4-(piperazin-1-yl)phenyl]-6H-pyrimido[5,4-c][2,1]benzothiazin-2-amine 5,5-dioxide] | 1.5
23 | C=CCN1c2ccccc2-c2nc(Nc3ccc4c(c3)CNCC4)ncc2S1(=O)=O [Example 26, 6-allyl-N-(1,2,3,4-tetrahydroisoquinolin-7-yl)-6H-pyrimdio[5,4-c][2,1]benzothiazin-2-amine 5,5-dioxide] | 1
24 | C=CCN1c2ccccc2-c2nc(Nc3ccncc3)ncc2S1(=O)=O [Example 27, 6-allyl-N-(pyridin-4-yl)-6H-pyrimido[5,4-c][2,1]benzothiazin-2-amine 5,5-dioxide] | 30
25 | C=CCN1c2ccccc2-c2nc(Nc3ccc4c(c3)CN(C)CC43CC3)ncc2S1(=O)=O [Example 28, 6-allyl-N-(2′-methyl-2′,3′-dihydro-1′H-spiro[cyclopropane-1,4′-isoquinolin]-7′-yl)-6H-pyrimido[5,4-c][2,1]benzothiazin-2-amine 5,5-dioxide] | 1.1
26 | C=CCN1c2ccccc2-c2nc(N)ncc2S1(=O)=O [Example 29, 6-allyl-6H-pyrimido[5,4-c][2,1]benzothiazin-2-amine 5,5-dioxide] | 413
27 | C=CCN1c2ccccc2-c2nc(Nc3ccc4c(c3)NCCC4)ncc2S1(=O)=O [Example 30, 6-allyl-N-(1,2,3,4-tetrahydroquinolin-7-yl)-6H-pyrimido[5,4-c][2,1]benzothiazin-2-amine 5,5-dioxide] | 21
28 | C=CCN1c2ccccc2-c2nc(Nc3ccc(N4CCNCC4)c(F)c3)ncc2S1(=O)=O [Example 31, 6-allyl-N-[3-fluoro-4-(piperazin-1-yl)phenyl]-6H-pyrimido[5,4-c][2,1]benzothiazin-2-amine 5,5-dioxide] | 1.7
29 | C=CCN1c2ncccc2-c2nc(Nc3ccccc3)ncc2S1(=O)=O [Example 32, 6-allyl-N-phenyl-6H-pyrido[2,3-c]pyrimido[4,5-e][1,2]thiazin-2-amine 5,5-dioxide] | 1450
30 | C=CCN1c2ncccc2-c2nc(Nc3ccc4c(c3)CNCC4)ncc2S1(=O)=O [Example 33, 6-allyl-N-(1,2,3,4-tetrahydroisoquinolin-7-yl)-6H-pyrido[2,3-c]pyrimido[4,5-e][1,2]thiazin-2-amine 5,5-dioxide] | 3
31 | C=CCN1c2ncccc2-c2nc(Nc3ccc(N4CCNCC4)cc3)ncc2S1(=O)=O [Example 34, 6-allyl-N-[4-(piperazin-1-yl)phenyl]-6H-pyrido[2,3-c]pyrimido[4,5-e][1,2]thiazin-2-amine 5,5-dioxide] | 2
32 | C=CCN1c2ncccc2-c2nc(Nc3ccc4c(c3)N(C(C)=O)CC4)ncc2S1(=O)=O [Example 35, 1-{6-[(6-allyl-5,5-dioxido-6H-pyrido[2,3-c]pyrimido[4,5-e][1,2]thiazin-2-yl)amino]-2,3-dihydro-1H-indol-1-yl}ethanone] | 48
33 | C=CCN1c2ncccc2-c2nc(Nc3ccc(N4CCNCC4)c(F)c3)ncc2S1(=O)=O [Example 36, 6-allyl-N-[3-fluoro-4-(piperazin-1-yl)phenyl]-6H-pyrido[2,3-c]pyrimido[4,5-e][1,2]thiazin-2-amine 5,5-dioxide] | 9
34 | C=CCN1c2ncccc2-c2nc(Nc3ccc(C4CCNCC4)cc3)ncc2S1(=O)=O [Example 37, 6-allyl-N-[4-(piperidin-4-yl)phenyl]-6H-pyrido[2,3-c]pyrimido[4,5-e][1,2]thiazin-2-amine 5,5-dioxide] | 5
35 | C=CCN1c2ncccc2-c2nc(Nc3ccc4c(c3)NCCC4)ncc2S1(=O)=O [Example 38, 6-allyl-N-(1,2,3,4-tetrahydroquinolin-7-yl)-6H-pyrido[2,3-c]pyrimido[4,5-e][1,2]thiazin-2-amine 5,5-dioxide] | 51
